# Test results as given in ChEMBL document CHEMBL1671742, “Overexpression of the adeB gene in clinical isolates of tigecycline-nonsusceptible Acinetobacter baumannii without insertion mutations in adeRS” (Antimicrob Agents Chemother, 2010).
# Experiments:
# Acinetobacter baumannii [1] = assay: Antibacterial activity against intI1-positive tigecycline-intermediate Acinetobacter baumannii AB099 with PFGE subgroup H containing carbapenemase OXA-23 and OXA-51 by Etest; type: functional
# Acinetobacter baumannii [2] = assay: Antibacterial activity against intI1-positive tigecycline-susceptible Acinetobacter baumannii AB095 with PFGE subgroup E containing carbapenemase OXA-23 and OXA-51 by Etest; type: functional
# Acinetobacter baumannii [3] = assay: Antibacterial activity against intI1-positive tigecycline-resistant Acinetobacter baumannii AB118 with PFGE subgroup B2 containing carbapenemase OXA-23 and OXA-51 by Etest; type: functional
# Acinetobacter baumannii [4] = assay: Antibacterial activity against intI1-positive tigecycline-susceptible Acinetobacter baumannii AB110 with PFGE subgroup C containing carbapenemase OXA-51 by Etest; type: functional
# Acinetobacter baumannii [5] = assay: Antibacterial activity against intI1-positive tigecycline-susceptible Acinetobacter baumannii AB039 with PFGE subgroup B1 containing carbapenemase OXA-23 and OXA-51 by Etest; type: functional
# Acinetobacter baumannii [6] = assay: Antibacterial activity against intI1-positive tigecycline-intermediate Acinetobacter baumannii AB127 with PFGE subgroup I containing carbapenemase OXA-23 and OXA-51 by Etest; type: functional
# Acinetobacter baumannii [7] = assay: Antibacterial activity against intI1-positive tigecycline-resistant Acinetobacter baumannii AB106 with PFGE subgroup B1 containing carbapenemase OXA-23 and OXA-51 by Etest; type: functional
# Acinetobacter baumannii [8] = assay: Antibacterial activity against intI1-positive tigecycline-intermediate Acinetobacter baumannii AB166 with PFGE subgroup A3 containing carbapenemase OXA-51 by Etest; type: functional
# Acinetobacter baumannii [9] = assay: Antibacterial activity against intI1-positive tigecycline-resistant Acinetobacter baumannii AB168 with PFGE subgroup A1 containing carbapenemase OXA-23 and OXA-51 by Etest; type: functional
# Acinetobacter baumannii [10] = assay: Antibacterial activity against intI1-positive tigecycline-resistant Acinetobacter baumannii AB125 with PFGE subgroup A1 containing carbapenemase OXA-23 and OXA-51 by Etest; type: functional
# Acinetobacter baumannii [11] = assay: Antibacterial activity against intI1-positive tigecycline-resistant Acinetobacter baumannii AB097 with PFGE subgroup B1 containing carbapenemase OXA-23 and OXA-51 by Etest; type: functional
# Acinetobacter baumannii [12] = assay: Antibacterial activity against intI1-positive tigecycline-susceptible Acinetobacter baumannii AB018 with PFGE subgroup G containing carbapenemase OXA-58 and OXA-51 by Etest; type: functional
# Acinetobacter baumannii [13] = assay: Antibacterial activity against intI1-positive tigecycline-resistant Acinetobacter baumannii AB113 with PFGE subgroup B1 containing carbapenemase OXA-23 and OXA-51 by Etest; type: functional
# Acinetobacter baumannii [14] = assay: Antibacterial activity against intI1-positive tigecycline-resistant Acinetobacter baumannii AB096 with PFGE subgroup B1 containing carbapenemase OXA-23 and OXA-51 by Etest; type: functional
# Acinetobacter baumannii [15] = assay: Antibacterial activity against intI1-negative tigecycline-intermediate Acinetobacter baumannii AB098 with PFGE subgroup F containing carbapenemase OXA-23 and OXA-51 by Etest; type: functional
# Acinetobacter baumannii [16] = assay: Antibacterial activity against intI1-positive tigecycline-resistant Acinetobacter baumannii AB134 with PFGE subgroup A2 containing carbapenemase OXA-23 and OXA-51 by Etest; type: functional
# Acinetobacter baumannii [17] = assay: Antibacterial activity against intI1-positive tigecycline-resistant Acinetobacter baumannii AB173 with PFGE subgroup B1 containing carbapenemase OXA-23 and OXA-51 by Etest; type: functional
# Acinetobacter baumannii [18] = assay: Antibacterial activity against intI1-positive tigecycline-resistant Acinetobacter baumannii AB097 with PFGE subgroup B1 containing carbapenemase OXA-23 and OXA-51 by Etest in presence of 64 mg/liter 1-(1-naphthylmethyl)-piperazine; type: functional
# Acinetobacter baumannii [19] = assay: Antibacterial activity against intI1-positive tigecycline-intermediate Acinetobacter baumannii AB166 with PFGE subgroup A3 containing carbapenemase OXA-51 by Etest in presence of 64 mg/liter 1-(1-naphthylmethyl)-piperazine; type: functional
# Acinetobacter baumannii [20] = assay: Antibacterial activity against intI1-positive tigecycline-resistant Acinetobacter baumannii AB168 with PFGE subgroup A1 containing carbapenemase OXA-23 and OXA-51 by Etest in presence of 64 mg/liter 1-(1-naphthylmethyl)-piperazine; type: functional
# Acinetobacter baumannii [21] = assay: Antibacterial activity against intI1-positive tigecycline-resistant Acinetobacter baumannii AB118 with PFGE subgroup B2 containing carbapenemase OXA-23 and OXA-51 by Etest in presence of 64 mg/liter 1-(1-naphthylmethyl)-piperazine; type: functional
# Acinetobacter baumannii [22] = assay: Antibacterial activity against intI1-positive tigecycline-resistant Acinetobacter baumannii AB106 with PFGE subgroup B1 containing carbapenemase OXA-23 and OXA-51 by Etest in presence of 64 mg/liter 1-(1-naphthylmethyl)-piperazine; type: functional
# Acinetobacter baumannii [23] = assay: Antibacterial activity against intI1-positive tigecycline-resistant Acinetobacter baumannii AB125 with PFGE subgroup A1 containing carbapenemase OXA-23 and OXA-51 by Etest in presence of 64 mg/liter 1-(1-naphthylmethyl)-piperazine; type: functional
# Serum = assay: Steady state drug concentration in human serum; type: ADME, cell-free
# Acinetobacter baumannii [24] = assay: Antibacterial activity against Multidrug-resistant Acinetobacter baumannii by broth microdilution method; type: functional
# Acinetobacter baumannii [25] = assay: Antibacterial activity against intI1-positive tigecycline-intermediate Acinetobacter baumannii AB099 with PFGE subgroup H containing carbapenemase OXA-23 and OXA-51 by Etest in presence of 64 mg/liter 1-(1-naphthylmethyl)-piperazine; type: functional
# Acinetobacter baumannii [26] = assay: Antibacterial activity against intI1-positive tigecycline-resistant Acinetobacter baumannii AB134 with PFGE subgroup A2 containing carbapenemase OXA-23 and OXA-51 by Etest in presence of 64 mg/liter 1-(1-naphthylmethyl)-piperazine; type: functional
# Acinetobacter baumannii [27] = assay: Antibacterial activity against intI1-positive tigecycline-susceptible Acinetobacter baumannii AB095 with PFGE subgroup E containing carbapenemase OXA-23 and OXA-51 by Etest in presence of 64 mg/liter 1-(1-naphthylmethyl)-piperazine; type: functional
# Acinetobacter baumannii [28] = assay: Antibacterial activity against intI1-positive tigecycline-resistant Acinetobacter baumannii AB113 with PFGE subgroup B1 containing carbapenemase OXA-23 and OXA-51 by Etest in presence of 64 mg/liter 1-(1-naphthylmethyl)-piperazine; type: functional
# Acinetobacter baumannii [29] = assay: Antibacterial activity against intI1-positive tigecycline-intermediate Acinetobacter baumannii AB127 with PFGE subgroup I containing carbapenemase OXA-23 and OXA-51 by Etest in presence of 64 mg/liter 1-(1-naphthylmethyl)-piperazine; type: functional
# Acinetobacter baumannii [30] = assay: Antibacterial activity against intI1-positive tigecycline-susceptible Acinetobacter baumannii AB110 with PFGE subgroup C containing carbapenemase OXA-51 by Etest in presence of 64 mg/liter 1-(1-naphthylmethyl)-piperazine; type: functional
# Acinetobacter baumannii [31] = assay: Antibacterial activity against intI1-negative tigecycline-intermediate Acinetobacter baumannii AB098 with PFGE subgroup F containing carbapenemase OXA-23 and OXA-51 by Etest in presence of 64 mg/liter 1-(1-naphthylmethyl)-piperazine; type: functional
# Acinetobacter baumannii [32] = assay: Antibacterial activity against intI1-positive tigecycline-resistant Acinetobacter baumannii AB173 with PFGE subgroup B1 containing carbapenemase OXA-23 and OXA-51 by Etest in presence of 64 mg/liter 1-(1-naphthylmethyl)-piperazine; type: functional
# Acinetobacter baumannii [33] = assay: Antibacterial activity against Multidrug-resistant Acinetobacter baumannii clinical isolate by broth microdilution method; type: functional
# Acinetobacter baumannii [34] = assay: Antibacterial activity against intI1-positive tigecycline-resistant Acinetobacter baumannii AB096 with PFGE subgroup B1 containing carbapenemase OXA-23 and OXA-51 by Etest in presence of 64 mg/liter 1-(1-naphthylmethyl)-piperazine; type: functional
# Acinetobacter baumannii [35] = assay: Antibacterial activity against intI1-positive tigecycline-susceptible Acinetobacter baumannii AB018 with PFGE subgroup G containing carbapenemase OXA-58 and OXA-51 by Etest in presence of 64 mg/liter 1-(1-naphthylmethyl)-piperazine; type: functional
# Acinetobacter baumannii [36] = assay: Antibacterial activity against intI1-positive tigecycline-susceptible Acinetobacter baumannii AB039 with PFGE subgroup B1 containing carbapenemase OXA-23 and OXA-51 by Etest in presence of 64 mg/liter 1-(1-naphthylmethyl)-piperazine; type: functional
compound,measurement,setting,value
CCN1CCN(C(=O)N[C@@H](C(=O)N[C@@H]2C(=O)N3[C@@H]2SC(C)(C)[C@@H]3C(=O)O)c2ccccc2)C(=O)C1=O [PIPERACILLIN],MIC,Acinetobacter baumannii [1],> 128 µg/mL
same,MIC,Acinetobacter baumannii [2],> 128 µg/mL
same,MIC,Acinetobacter baumannii [3],> 128 µg/mL
same,MIC,Acinetobacter baumannii [4],> 128 µg/mL
same,MIC,Acinetobacter baumannii [5],> 128 µg/mL
same,MIC,Acinetobacter baumannii [6],> 128 µg/mL
same,MIC,Acinetobacter baumannii [7],> 128 µg/mL
same,MIC,Acinetobacter baumannii [8],> 128 µg/mL
same,MIC,Acinetobacter baumannii [9],> 128 µg/mL
same,MIC,Acinetobacter baumannii [10],> 128 µg/mL
same,MIC,Acinetobacter baumannii [11],> 128 µg/mL
same,MIC,Acinetobacter baumannii [12],> 128 µg/mL
same,MIC,Acinetobacter baumannii [13],> 128 µg/mL
same,MIC,Acinetobacter baumannii [14],> 128 µg/mL
same,MIC,Acinetobacter baumannii [15],> 128 µg/mL
same,MIC,Acinetobacter baumannii [16],> 128 µg/mL
same,MIC,Acinetobacter baumannii [17],> 128 µg/mL
C[C@@H](O)[C@H]1C(=O)N2C(C(=O)O)=C(SCCNC=N)C[C@H]12 [IMIPENEM ANHYDROUS],MIC,Acinetobacter baumannii [1],> 32 µg/mL
same,MIC,Acinetobacter baumannii [2],32 µg/mL
same,MIC,Acinetobacter baumannii [3],> 32 µg/mL
same,MIC,Acinetobacter baumannii [4],1.5 µg/mL
same,MIC,Acinetobacter baumannii [5],> 32 µg/mL
same,MIC,Acinetobacter baumannii [6],32 µg/mL
same,MIC,Acinetobacter baumannii [7],> 32 µg/mL
same,MIC,Acinetobacter baumannii [8],6 µg/mL
same,MIC,Acinetobacter baumannii [9],> 32 µg/mL
same,MIC,Acinetobacter baumannii [10],> 32 µg/mL
same,MIC,Acinetobacter baumannii [11],> 32 µg/mL
same,MIC,Acinetobacter baumannii [12],8 µg/mL
same,MIC,Acinetobacter baumannii [13],32 µg/mL
same,MIC,Acinetobacter baumannii [14],> 32 µg/mL
same,MIC,Acinetobacter baumannii [15],> 32 µg/mL
same,MIC,Acinetobacter baumannii [16],> 32 µg/mL
same,MIC,Acinetobacter baumannii [17],32 µg/mL
C[C@H]1COc2c(N3CCN(C)CC3)c(F)cc3c(=O)c(C(=O)O)cn1c23.C[C@H]1COc2c(N3CCN(C)CC3)c(F)cc3c(=O)c(C(=O)O)cn1c23.O [LEVOFLOXACIN],MIC,Acinetobacter baumannii [1],> 32 µg/mL
same,MIC,Acinetobacter baumannii [2],> 32 µg/mL
same,MIC,Acinetobacter baumannii [3],> 32 µg/mL
same,MIC,Acinetobacter baumannii [4],12 µg/mL
same,MIC,Acinetobacter baumannii [6],> 32 µg/mL
same,MIC,Acinetobacter baumannii [7],32 µg/mL
same,MIC,Acinetobacter baumannii [8],> 32 µg/mL
same,MIC,Acinetobacter baumannii [9],> 32 µg/mL
same,MIC,Acinetobacter baumannii [10],> 32 µg/mL
same,MIC,Acinetobacter baumannii [11],> 32 µg/mL
same,MIC,Acinetobacter baumannii [12],6 µg/mL
same,MIC,Acinetobacter baumannii [13],> 32 µg/mL
same,MIC,Acinetobacter baumannii [14],> 32 µg/mL
same,MIC,Acinetobacter baumannii [15],> 32 µg/mL
same,MIC,Acinetobacter baumannii [16],> 32 µg/mL
same,MIC,Acinetobacter baumannii [17],> 32 µg/mL
C[C@]1(Cn2ccnn2)[C@H](C(=O)O)N2C(=O)C[C@H]2S1(=O)=O [TAZOBACTAM],MIC,Acinetobacter baumannii [1],4 µg/mL
same,MIC,Acinetobacter baumannii [2],4 µg/mL
same,MIC,Acinetobacter baumannii [3],4 µg/mL
same,MIC,Acinetobacter baumannii [4],4 µg/mL
same,MIC,Acinetobacter baumannii [5],4 µg/mL
same,MIC,Acinetobacter baumannii [6],4 µg/mL
same,MIC,Acinetobacter baumannii [7],4 µg/mL
same,MIC,Acinetobacter baumannii [8],4 µg/mL
same,MIC,Acinetobacter baumannii [9],4 µg/mL
same,MIC,Acinetobacter baumannii [10],4 µg/mL
same,MIC,Acinetobacter baumannii [11],4 µg/mL
same,MIC,Acinetobacter baumannii [12],4 µg/mL
same,MIC,Acinetobacter baumannii [13],4 µg/mL
same,MIC,Acinetobacter baumannii [14],4 µg/mL
same,MIC,Acinetobacter baumannii [15],4 µg/mL
same,MIC,Acinetobacter baumannii [16],4 µg/mL
same,MIC,Acinetobacter baumannii [17],4 µg/mL
CN(C)c1cc(NC(=O)CNC(C)(C)C)c(O)c2c1C[C@H]1C[C@H]3[C@H](N(C)C)C(O)=C(C(N)=O)C(=O)[C@@]3(O)C(O)=C1C2=O [TIGECYCLINE],MIC,Acinetobacter baumannii [18],4 µg/mL
same,MIC,Acinetobacter baumannii [1],6 µg/mL
same,MIC,Acinetobacter baumannii [2],2 µg/mL
same,MIC,Acinetobacter baumannii [3],8 µg/mL
same,MIC,Acinetobacter baumannii [19],4 µg/mL
same,MIC,Acinetobacter baumannii [20],4 µg/mL
same,MIC,Acinetobacter baumannii [4],2 µg/mL
same,MIC,Acinetobacter baumannii [5],2 µg/mL
same,MIC,Acinetobacter baumannii [6],4 µg/mL
same,MIC,Acinetobacter baumannii [7],8 µg/mL
same,MIC,Acinetobacter baumannii [21],6 µg/mL
same,MIC,Acinetobacter baumannii [8],4 µg/mL
same,MIC,Acinetobacter baumannii [22],6 µg/mL
same,MIC,Acinetobacter baumannii [23],8 µg/mL
same,Css,Serum,630 ng/mL
same,MIC50,Acinetobacter baumannii [24],2 µg/mL
same,MIC90,Acinetobacter baumannii [24],4 µg/mL
same,MIC,Acinetobacter baumannii [9],8 µg/mL
same,MIC,Acinetobacter baumannii [25],4 µg/mL
same,MIC,Acinetobacter baumannii [26],3 µg/mL
same,MIC,Acinetobacter baumannii [27],3 µg/mL
same,MIC,Acinetobacter baumannii [10],8 µg/mL
same,MIC,Acinetobacter baumannii [11],12 µg/mL
same,MIC,Acinetobacter baumannii [28],4 µg/mL
same,MIC,Acinetobacter baumannii [29],4 µg/mL
same,MIC,Acinetobacter baumannii [12],2 µg/mL
same,MIC,Acinetobacter baumannii [30],4 µg/mL
same,MIC,Acinetobacter baumannii [31],4 µg/mL
same,MIC,Acinetobacter baumannii [13],8 µg/mL
same,MIC,Acinetobacter baumannii [14],16 µg/mL
same,MIC,Acinetobacter baumannii [32],4 µg/mL
same,MIC,Acinetobacter baumannii [15],6 µg/mL
same,MIC,Acinetobacter baumannii [16],8 µg/mL
same,MIC50,Acinetobacter baumannii [33],16 µg/mL
same,MIC90,Acinetobacter baumannii [33],32 µg/mL
same,MIC,Acinetobacter baumannii [34],8 µg/mL
same,MIC,Acinetobacter baumannii [35],2 µg/mL
same,MIC,Acinetobacter baumannii [36],4 µg/mL
same,MIC,Acinetobacter baumannii [17],8 µg/mL
